The values below come from patent publication US20020026053A1, “Novel 3-(substituted) -2- indolinones compounds and use thereof as inhibitors of protein kinase activity” (priority 1997, published 2002).

“And” between values parts separate entries of the source, which are not always exact repeats. Equal entries are not always repeated.

One experiment has as its system PDGF-R. In words: PDGF-R Assay (cellular ELISA, U1242 cells). To be noted: protocol P.119. Also on record: concentration or dose not given beside the values. In kind it is cell-based. How it is done: (§1) The cellular/catalytic assays described herein are performed in an ELISA format. The general procedure is as follows: a compound is introduced to cells expressing the test kinase, either naturally or recombinantly, for a selected period of time after which, if the test kinase is a receptor, a ligand known to activate the receptor is added. The cells are lysed and the lysate is transferred to the wells of an ELISA plate previously coated with a specific antibody recognizing the substrate of the enzymatic phosphorylation reaction. Non-substrate components of the cell lysate are washed away and the amount of phosphorylation on the substrate is detected with an antibody specifically recognizing phosphotyrosine compared with control cells that were not contacted with a test compound.
All cell culture media, glutamine, and fetal bovine serum can be purchased from Gibco Life Technologies (Grand Island, N.Y.) unless otherwise specified. All cells are grown in a humid atmosphere of 90-95% air and 5-10% CO2 at 37° C. All cell lines are routinely subcultured twice a week and are negative for mycoplasma as determined by the Mycotect method (Gibco).
For ELISA assays, cells (U1242, obtained from Joseph Schlessinger, NYU) are grown to 80-90% confluency in growth medium (MEM with 10% FBS, NEAA, 1 mM NaPyr and 2 mM GLN) and seeded in 96-well tissue culture plates in 0.5% serum at 25,000 to 30,000 cells per well. After overnight incubation in 0.5% serum-containing medium, cells are changed to serum-free medium and treated with test compound for 2 hr in a 5% CO2, 37° C. incubator. Cells are then stimulated with ligand for 5-10 minute followed by lysis with HNTG (20 mM Hepes, 150 mM NaCl, 10% glycerol, 5 mM EDTA, 5 mM Na3VO4, 0.2% Triton X-100, and 2 mM NaPyr). Cell lysates (0.5 mg/well in PBS) are transferred to ELISA plates previously coated with receptor-specific antibody and which had been blocked with 5% milk in TBST (50 mM Tris-HCl pH 7.2, 150 mM NaCl and 0.1% Triton X-100) at room temperature for 30 min. Lysates are incubated with shaking for 1 hour at room temperature. The plates are washed with TBST four times and then incubated with polyclonal anti-phosphotyrosine antibody at room temperature for 30 minutes. Excess anti-phosphotyrosine antibody is removed by rinsing the plate with TBST four times. Goat anti-rabbit IgG antibody is added to the ELISA plate for 30 min at room temperature followed by rinsing with TBST four more times. ABTS (100 mM citric acid, 250 mM Na2HPO4 and 0.5 mg/mL 2,2′-azino-bis (3-ethylbenzthiazoline-6-sulfonic acid)) plus H2O2 ([…] 30% H2O2 to 10 ml ABTS) is added to the ELISA plates to start color development. Absorbance at 410 nm with a reference wavelength of 630 nm is recorded about 15 to 30 min after ABTS addition.
In general terms: ELISA stands for enzyme-linked immunosorbent assay.

For another experiment, the system named is FLK-1 receptor. Kind of experiment: FLK-1 Assay (cellular/catalytic ELISA, VEGF-stimulated phosphotyrosine). In kind it is cell-based. Also on record: concentration or dose not given beside the values. To be noted: protocol P.110. Here is the method:
as §1
An ELISA assay is conducted to measure the kinase activity of the FLK-1 receptor and more specifically, the inhibition or activation of TK activity on the FLK-1 receptor. Specifically, the following assay can be conducted to measure kinase activity of the FLK-1 receptor in cells genetically engineered to express Flk-1.
a. Corning 96-well ELISA plates (Corning Catalog No. 25805-96);
b. Cappel goat anti-rabbit IgG (catalog no. 55641);
c. PBS (Gibco Catalog No. 450-1300EB);
d. TBSW Buffer (50 mM Tris (pH 7.2), 150 mM NaCl and 0.1% Tween-20);
e. Ethanolamine stock (10% ethanolamine (pH 7.0), stored at 4° C.);
f. HNTG buffer (20 mM HEPES buffer (pH 7.5), 150 mM NaCl, 0.2% Triton X-100, and 10% glycerol);
g. EDTA (0.5 M (pH 7.0) as a 100× stock);
h. Sodium orthovanadate (0.5 M as a 100× stock);
i. Sodium pyrophosphate (0.2 M as a 100× stock);
j. NUNC 96 well V bottom polypropylene plates (Applied Scientific Catalog No. AS-72092);
k. NIH3T3 C7#3 Cells (FLK-1 expressing cells);
l. DMEM with 1× high glucose L-Glutamine (catalog No. 11965-050);
n. L-glutamine, Gibco (catalog no. 25030-016);
o. VEGF, PeproTech, Inc. (catalog no. 100-20)(kept as 1 μg/100 μl stock in Milli-Q dH2O and stored at −20° C.;
p. Affinity purified anti-FLK-1 antiserum;
q. UB40 monoclonal antibody specific for phosphotyrosine (see, Fendley, et al., 1990, Cancer Research 50:1550-1558);
r. EIA grade Goat anti-mouse IgG-POD (BioRad catalog no. 172-1011);
s. 2,2-azino-bis(3-ethylbenz-thiazoline-6-sulfonic acid (ABTS) solution (100 mM citric acid (anhydrous), 250 mM Na2HPO4 (pH 4.0), 0.5 mg/ml ABTS (Sigma catalog no. A-1888)), solution should be stored in dark at 4° C. until ready for use;
t. H2O2 (30% solution) (Fisher catalog no. H325);
u. ABTS/ H2O2 (15 ml ABTS solution, 2 μl H2O2) prepared 5 minutes before use and left at room temperature;
v. 0.2 M HCl stock in H2O;
w. dimethylsulfoxide (100%) (Sigma Catalog No. D-8418); and
y. Trypsin-EDTA (Gibco BRL Catalog No. 25200-049).
1. Coat Corning 96-well ELISA plates with 1.0 μg per well Cappel Anti-rabbit IgG antibody in 0.1M Na2CO3 pH 9.6. Bring final volume to 150 μl per well. Coat plates overnight at 4° C. Plates can be kept up to two weeks when stored at 4° C.
2. Grow cells in Growth media (DMEM, supplemented with 2.0 mM L-Glutamine, 10% FBS) in suitable culture dishes until confluent at 37° C., 5% CO2.
3. Harvest cells by trypsinization and seed in Corning 25850 polystyrene 96-well round bottom cell plates, 25,000 cells/well in 200 μl of growth media.
4. Grow cells at least one day at 37° C., 5% CO2.
5. Wash cells with D-PBS 1×.
6. Add 200 μl/well of starvation media (DMEM, 2.0 mM 1-Glutamine, 0.1% FBS). Incubate overnight at 37° C., 5% CO2.
7. Dilute Compounds 1:20 in polypropylene 96 well plates using starvation media. Dilute dimethylsulfoxide 1:20 for use in control wells.
8. Remove starvation media from 96 well cell culture plates and add 162 μl of fresh starvation media to each well.
9. Add 18 μl of 1:20 diluted compound dilution (from step 7) to each well plus the 1:20 dimethylsulfoxide dilution to the control wells (+/− VEGF), for a final dilution of 1:200 after cell stimulation. Final dimethylsulfoxide is 0.5%. Incubate the plate at 37° C., 5% CO2 for two hours.
10. […]

For `Cc1c(Br)cc(Br)c2c1C(=CC1COc3ccccc3O1)C(=O)N2` (racemic) [10739/H05], in the experiment with PDGF-R, the “PDGF Kinase % Inhibition (P.119)” value is −5.0% and −6.4%. Also, in the experiment on FLK-1 receptor, the “Flk Kinase % Inhibition (P.110)” value was 5.3% and 10.0%.
